Results as given in ChEMBL document CHEMBL5104227, “Synthesis and evaluation of radiolabeled porphyrin derivatives for cancer diagnoses and their nonradioactive counterparts for photodynamic therapy” (RSC Med Chem, 2022).
The source made the active and inactive calls. The rule behind the calls is not given here.

What was measured:
[1] = Drug uptake in […] Colon 26 cells measured per mg of protein after 3 hrs by auto-well gamma counter analysis; format: ADME, cell-based; conditions: mouse, colon 26, 3 h
[2] = Biodistribution in liver of BALB/c mouse xenografted with […] Colon 26 cells at 37 kBq, iv measured upto 96 hrs by auto-well gamma counter analysis; format: ADME, organism-based; conditions: in vivo
[3] = Biodistribution in Tumor/blood of BALB/c mouse xenografted with […] Colon 26 cells at 37 kBq, iv by auto-well gamma counter analysis; format: ADME, organism-based; conditions: in vivo, 96 h, TDE = time-dependent effect
[4] = Drug uptake in Tumor of BALB/c mouse xenografted with […] Colon 26 cells at 37 kBq, iv measured at 48 hrs by auto-well gamma counter analysis; format: ADME, organism-based, Neoplasm; conditions: in vivo
[5] = Biodistribution in spleen of BALB/c mouse xenografted with […] Colon 26 cells at 37 kBq, iv measured upto 96 hrs by auto-well gamma counter analysis; format: ADME, organism-based; conditions: in vivo
[6] = Biodistribution in lung of BALB/c mouse xenografted with […] Colon 26 cells at 37 kBq, iv measured upto 96 hrs by auto-well gamma counter analysis; format: ADME, organism-based; conditions: in vivo
[7] = Toxicity in BALB/c mouse xenografted with […] Colon 26 cells assessed as weight loss at 13.6 umol/kg, iv pretreated for 24 hrs followed by 30 mins irradiation with 50 W LED light and measured upto 7 days; format: organism-based; conditions: in vivo, 168 h, dose 13.6 µmol/kg, time < 7 day
[8] = Biodistribution in Tumor/muscle of BALB/c mouse xenografted with […] Colon 26 cells at 37 kBq, iv measured at 48 hrs by auto-well gamma counter analysis; format: ADME, organism-based; conditions: in vivo
[9] = Octanol-water partition coefficient, logP of the compound at pH 7.4 incubated for 10 mins by shake-flask method; format: physicochemical
Colon 26 [10] = assay: Phototoxicity against […] Colon 26 cells assessed as inhibition of cell growth preincubated for 24 hrs followed by compound washout with replacement of fresh medium and irradiation with 50 W LED light by MTT assay; format: functional, cell-based; conditions: Mus musculus, Colon 26, light or radiation study
Colon 26 [11] = assay: Dark toxicity against […] Colon 26 cells assessed as inhibition of cell growth incubated for 24 hrs by MTT assay; format: functional, cell-based; conditions: Mus musculus, Colon 26, 24 h
[12] = Induction of singlet oxygen production in DMSO assessed as singlet oxygen quantum yield by measuring the photooxidation of 9,10-dimethylanthracene at 5 uM irradiated with 50 W LED light; format: functional
Colon 26 [13] = assay: Photodynamic therapeutic activity against […] Colon 26 cells /c xenografted in BALB/c mouse assessed as tumor growth inhibition at 13.6 umol/kg, iv pretreated for 24 hrs followed by 30 mins irradiation with 50 W LED light and measured upto 7 days; format: functional, organism-based; conditions: dose 13.6 µmol/kg, time <= 7.0 day, tested as the 125I-labelled form

Compound	Drug uptake [1] [%]	Drug uptake [2]	Drug uptake [3]	Drug uptake [4] [% ID/g]	Drug uptake [5]	Drug uptake [6]	Activity [7]	Drug uptake [8]	logD at 10 min [9]	IC50 (Colon 26 [10]) [µM]	IC50 (Colon 26 [11]) [µM]	Activity [12]	Activity (Colon 26 [13])
Oc1ccc(-c2c3nc(c(-c4ccccc4)c4ccc([nH]4)c(-c4ccccc4)c4nc(c(-c5ccccc5)c5ccc2[nH]5)C=C4)C=C3)cc1[125I]	54	Active	Tde	18	Active	Active	Non-Toxic	Active	2.96	–	–	–	–
O=C(N[C@@H](Cc1ccc(O)c(I)c1)C(=O)O)c1ccc(-c2c3nc(c(-c4ccccc4)c4ccc([nH]4)c(-c4ccccc4)c4nc(c(-c5ccccc5)c5ccc2[nH]5)C=C4)C=C3)cc1	–	–	–	–	–	–	–	–	–	5.28	> 100	0.51	Active
C1=Cc2nc1c(-c1ccccc1)c1ccc([nH]1)c(-c1ccccc1)c1nc(c(-c3ccccc3)c3ccc([nH]3)c2-c2ccccc2)C=C1	–	–	–	–	–	–	–	–	–	–	–	0.52	–
O=c1[nH]cc(F)c(=O)[nH]1 [FLUOROURACIL]	–	–	–	–	–	–	–	–	–	4.1	3.87	–	–
Oc1ccc(-c2c3nc(c(-c4ccccc4)c4ccc([nH]4)c(-c4ccccc4)c4nc(c(-c5ccccc5)c5ccc2[nH]5)C=C4)C=C3)cc1I	–	–	–	–	–	–	–	–	–	8.77	> 50	0.65	Active
O=C(N[C@@H](Cc1ccc(O)c([125I])c1)C(=O)O)c1ccc(-c2c3nc(c(-c4ccccc4)c4ccc([nH]4)c(-c4ccccc4)c4nc(c(-c5ccccc5)c5ccc2[nH]5)C=C4)C=C3)cc1	52.9	Active	Tde	8.7	Active	Active	Non-Toxic	Active	2.55	–	–	–	–
